Source: patent publication US11040035B2, “3-oxo-2,6-diphenyl-2,3-dihydropyridazine-4-carboxamides” (BAYER PHARMA AKTIENGESELLSCHAFT, priority 2016, dated 2021)

Legend:
AHR [1] = biological target: T1, AHR (Homo sapiens, UniProt P35869); test: In vitro assay 1: antagonism in human cell line (transactivation assay, kynurenic acid prestimulated); settings: Assay 1: AHR-luc Hum Antagonism IC50 [M], 150 μM kynurenic acid, 20 hours, firefly luciferase
T1 sequence (P35869 11-848): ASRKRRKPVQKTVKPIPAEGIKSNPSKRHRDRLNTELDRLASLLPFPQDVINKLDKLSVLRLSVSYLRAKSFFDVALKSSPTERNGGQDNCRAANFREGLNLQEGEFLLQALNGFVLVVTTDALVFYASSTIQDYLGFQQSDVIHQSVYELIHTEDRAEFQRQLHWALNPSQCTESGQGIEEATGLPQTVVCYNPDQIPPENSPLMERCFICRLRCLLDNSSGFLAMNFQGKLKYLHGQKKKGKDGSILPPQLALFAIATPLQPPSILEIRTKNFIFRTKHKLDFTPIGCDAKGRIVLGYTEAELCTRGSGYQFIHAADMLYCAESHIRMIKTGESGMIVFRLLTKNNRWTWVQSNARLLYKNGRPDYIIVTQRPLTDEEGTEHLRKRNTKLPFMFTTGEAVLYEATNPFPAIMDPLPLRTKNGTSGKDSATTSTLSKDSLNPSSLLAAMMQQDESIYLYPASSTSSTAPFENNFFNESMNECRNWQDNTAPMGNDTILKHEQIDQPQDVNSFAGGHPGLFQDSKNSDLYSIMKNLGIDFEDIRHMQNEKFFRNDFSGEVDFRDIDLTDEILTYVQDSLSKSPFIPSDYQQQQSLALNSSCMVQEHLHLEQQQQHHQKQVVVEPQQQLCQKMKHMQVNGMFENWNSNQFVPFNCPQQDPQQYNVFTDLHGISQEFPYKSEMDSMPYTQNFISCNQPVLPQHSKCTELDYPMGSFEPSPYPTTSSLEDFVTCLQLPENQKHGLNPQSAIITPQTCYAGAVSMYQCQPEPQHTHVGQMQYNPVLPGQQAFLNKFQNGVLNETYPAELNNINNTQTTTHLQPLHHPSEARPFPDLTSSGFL
Protocol: Transactivation assays were carried out in U87 glioblastoma cells (ATCC) endogenously expressing AHR. In addition the cells were stably transfected with an AHR inducible firefly luciferase reporter gene construct that carried AHR-binding sites (DRE) in its promoter and a renilla reporter gene construct with constitutively active promoter. Kynurenic acid is an endogenous AHR activating ligand and was used to prestimulate test cells prior to testing the antagonistic properties of compounds.
In Vitro Assay 1: Antagonism in Human Cell Line
Cells in medium (tryptophan free RPMI, 1% FCS, 2 mM Glutamine) supplemented with 150 μM kynurenic acid were grown for 20 hours in absence (negative control) or presence of increasing concentrations of test compounds (typical dilutions: 72 pmol/L, 0.25 nmol/L, 0.89 nmol/L; 3.1 nmol/L, 11 nmol/L, 38 nmol/L, 130 nmol/L, 470 nmol/L, 1.6 μmol/L, 5.7 μmol/L and 20 μmol/L in duplicates). As positive inhibition control cells supplemented with 150 μM kynurenic acid were incubated in presence of 5 μM Staurosporin. Normalization was done by positive and negative controls.
Firefly luciferase and Renilla activity was determined by the DualGlo Luciferase Assay System (Promega, #2920).

AHR [2] = biological target: T1, AHR; test: In vitro assay 2: agonism in human cell line (transactivation assay); settings: Assay 2: AHR-luc Hum Agonism IC50 [M], no kynurenic acid, 20 hours, firefly luciferase

Row | SMILES | IC50 (AHR [1]) [M] | IC50 (AHR [2]) [M]
1 | CC(C)C(O)CNC(=O)c1cc(-c2ccc(Cl)cc2)nn(-c2cc(F)cc(F)c2)c1=O (stereo not drawn) [Example 48, 6-(4-Chlorophenyl)-2-(3,5-difluorophenyl)-N-(2-hydroxy-3-methylbutyl)-3-oxo-2,3-dihydropyridazine-4-carboxamide] | 4.93e-08 | > 2e-05
2 | Cc1ccc(-c2cc(C(=O)NCC(O)C(F)(F)F)c(=O)n(-c3cc(F)cc(F)c3)n2)cc1 (stereo not drawn) [Example 52, 2-(3,5-Difluorophenyl)-6-(4-methylphenyl)-3-oxo-N-(3,3,3-trifluoro-2-hydroxypropyl)-2,3-dihydropyridazine-4-carboxamide] | 1.17e-08 | > 2e-05
3 | Cc1ccc(-c2cc(C(=O)NCC(O)C(C)C)c(=O)n(-c3cc(F)cc(F)c3)n2)cc1 (stereo not drawn) [Example 56, 2-(3,5-Difluorophenyl)-N-(2-hydroxy-3-methylbutyl)-6-(4-methylphenyl)-3-oxo-2,3-dihydropyridazine-4-carboxamide] | 4e-08 | > 2e-05
4 | C[C@@H](CO)NC(=O)c1cc(-c2ccc(Cl)cc2)nn(-c2cccc(Cl)c2)c1=O [Example 66, 2-(3-Chlorophenyl)-6-(4-chlorophenyl)-N-[(2S)-1-hydroxypropan-2-yl]-3-oxo-2,3-dihydropyridazine-4-carboxamide] | 1.65e-07 | > 2e-05
5 | CC(C)[C@@H](CO)NC(=O)c1cc(-c2ccc(Cl)cc2)nn(-c2ccccc2)c1=O [Example 75, 6-(4-chlorophenyl)-N-[(2S)-1-hydroxy-3-methylbutan-2-yl]-3-oxo-2-phenyl-2,3-dihydropyridazine-4-carboxamide] | 3.45e-08 | > 2e-05
6 | O=C(NCC(O)C(F)(F)F)c1cc(-c2ccc(Cl)cc2)nn(-c2ccccc2)c1=O (stereo not drawn) [Example 76, 6-(4-chlorophenyl)-3-oxo-2-phenyl-N-(3,3,3-trifluoro-2-hydroxypropyl)-2,3-dihydropyridazine-4-carboxamide] | 9.37e-08 | > 2e-05
7 | C[C@@H](CO)NC(=O)c1cc(-c2ccc(Cl)cc2)nn(-c2ccccc2)c1=O [Example 80, 6-(4-chlorophenyl)-N-[(2S)-1-hydroxypropan-2-yl]-3-oxo-2-phenyl-2,3-dihydropyridazine-4-carboxamide] | 2.14e-07 | > 2e-05
8 | CC(C)[C@@H](CO)NC(=O)c1cc(-c2ccc(C(F)F)cc2)nn(-c2cccc(F)c2)c1=O [Example 91, 6-[4-(Difluoromethyl)phenyl]-2-(3-fluorophenyl)-N-[(2S)-1-hydroxy-3-methylbutan-2-yl]-3-oxo-2,3-dihydropyridazine-4-carboxamide] | 4.44e-09 | > 2e-05
9 | CC[C@@H](CO)NC(=O)c1cc(-c2ccc(C(F)F)cc2)nn(-c2cccc(F)c2)c1=O [Example 92, 6-[4-(Difluoromethyl)phenyl]-2-(3-fluorophenyl)-N-[(2S)-1-hydroxybutan-2-yl]-3-oxo-2,3-dihydropyridazine-4-carboxamide] | 1.2e-08 | > 2e-05
10 | C[C@@H](CO)NC(=O)c1cc(-c2ccc(C(F)F)cc2)nn(-c2cccc(F)c2)c1=O [Example 93, 6-[4-(Difluoromethyl)phenyl]-2-(3-fluorophenyl)-N-[(2S)-1-hydroxypropan-2-yl]-3-oxo-2,3-dihydropyridazine-4-carboxamide] | 3.02e-08 | > 2e-05
11 | O=C(NCC(O)C(F)(F)F)c1cc(-c2ccc(C(F)F)cc2)nn(-c2cccc(F)c2)c1=O (stereo not drawn) [Example 94, 6-[4-(Difluoromethyl)phenyl]-2-(3-fluorophenyl)-3-oxo-N-(3,3,3-trifluoro-2-hydroxypropyl)-2,3-dihydropyridazine-4-carboxamide] | 1.54e-08 | > 2e-05
12 | COc1ccc(-c2cc(C(=O)NC(CO)C(F)(F)F)c(=O)n(-c3cccc(F)c3)n2)cc1 (stereo not drawn) [Example 100, 2-(3-Fluorophenyl)-6-(4-methoxyphenyl)-3-oxo-N-(1,1,1-trifluoro-3-hydroxypropan-2-yl)-2,3-dihydropyridazine-4-carboxamide] | 1.09e-08 | > 2e-05
